# Experimental data reported in patent US10968172B2, “USP30 inhibitors” (Mitobridge, Inc., priority 2017, dated 2021).
# Molecular target: USP30 (Homo sapiens (Human), UniProt Q70CQ3)
# Experiment: In vitro biochemical assay for USP30 enzyme (Ubiquitin-Rhodamine110 cleavage, fluorescence)
# Details: 20 nM USP30, 15 min pre-incubation, 100 nM Ub rhodamine substrate, 2 hrs at room temperature
# Description: In vitro biochemical assay for USP30 enzyme
# The in vitro assay for USP30 evaluates the ability of a test compound to inhibit the activity of the enzyme to cleave ubiquitin from a substrate. Ubiquitin-rhodamine 110 is a quenched, fluorescent substrate for USP30. Cleavage of the amide bond between the C-terminal glycine of ubiquitin and rhodamine results in an increase in rhodamine fluorescence at 535 nm (Exc. 485 nm).
# Incubation of the substrate in the presence or absence of USP30 was compared to confirm the deubiquitylating activity of USP30. The USP30 enzyme assay was performed by pre-incubating 20 nM of USP30 with varying concentration of a test compound in the assay buffer [PBS (pH 7.4), 1 mM DTT, 0.01% Tween 20, 0.01% BSA, DMSO final concentration is 1%] for 15 mins at room temperature, following which 100 nM of substrate Ub rhodamine was added and incubated at room temperature for 2 hrs and the plate was read for fluorescence intensity at Ex. 485 nm/535 nm in VICTOR X5 plate reader. The percent inhibition of activity of the enzyme is calculated by comparing counts in the presence and absence of compounds.
# Test compounds were screened at various concentrations (10-12 tested concentrations) and dose response curves were generated was generated using GraphPad Prism software Version 7 (San Diego, Calif., USA) with non-linear regression curve fit for sigmoidal dose response (variable slope).
# Chain of USP30 (Q70CQ3 whole entry): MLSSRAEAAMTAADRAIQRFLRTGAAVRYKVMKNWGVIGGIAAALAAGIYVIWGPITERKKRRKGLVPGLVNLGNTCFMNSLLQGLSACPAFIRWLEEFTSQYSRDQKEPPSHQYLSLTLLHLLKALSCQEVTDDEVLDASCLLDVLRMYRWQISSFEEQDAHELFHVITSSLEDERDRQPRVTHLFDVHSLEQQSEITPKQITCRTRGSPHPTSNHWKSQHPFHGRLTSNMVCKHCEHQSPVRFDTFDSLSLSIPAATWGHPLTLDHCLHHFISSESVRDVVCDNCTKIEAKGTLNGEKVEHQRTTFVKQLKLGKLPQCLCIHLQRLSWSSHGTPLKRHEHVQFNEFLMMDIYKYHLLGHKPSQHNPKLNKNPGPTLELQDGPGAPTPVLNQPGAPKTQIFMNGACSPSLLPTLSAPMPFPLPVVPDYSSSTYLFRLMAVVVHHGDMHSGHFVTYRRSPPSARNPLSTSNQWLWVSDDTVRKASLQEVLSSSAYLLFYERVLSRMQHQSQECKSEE
row,IC50 [nM],Structure (SMILES)
1,120,"CC(C)(C)NS(=O)(=O)c1ccc(NC(=O)[C@H](CC2CCCCC2)NC(=O)C2CCCC2)cc1 [Compound 14e, (S)-N-(1-((4-(N-(tert-butyl)sulfamoyl)phenyl)amino)-3-cyclohexyl-1-oxopropan-2-yl)cyclopentanecarboxamide]"
2,28,"CC(C)(C)NS(=O)(=O)c1ccc(NC(=O)[C@@H](Cc2ccccc2)NC(=O)C2CCCCC2)cc1 [Compound 10d, (R)-N-(1-((4-(N-(tert-butyl)sulfamoyl)phenyl)amino)-1-oxo-3-phenylpropan-2-yl)cyclohexanecarboxamide]"
3,3600,"CC(C)(C)NS(=O)(=O)c1ccc(NC(=O)[C@H](Cc2ccc(OC(F)(F)F)cc2)NC(=O)c2ccc(F)cc2)cc1 [Compound 19ae, (S)-N-(1-((4-(N-(tert-butyl)sulfamoyl)phenyl)amino)-1-oxo-3-(4-(trifluoromethoxy)phenyl)propan-2-yl)-4-fluorobenzamide]"
4,225,"CC(C)(C)NS(=O)(=O)c1ccc(NC(=O)[C@H](CC2CCCCC2)NC(=O)c2ccccc2)cc1 [Compound 14a, (S)-N-(1-((4-(N-(tert-butyl)sulfamoyl)phenyl)amino)-3-cyclohexyl-1-oxopropan-2-yl)benzamide]"
5,49,"CC(C)(C)NS(=O)(=O)c1cccc2c(NC(=O)[C@H](Cc3ccccc3)NC(=O)c3ccc(F)cc3)cccc12 [Compound 4j, (S)-N-(1-((5-(N-(tert-butyl)sulfamoyl)naphthalen-1-yl)amino)-1-oxo-3-phenylpropan-2-yl)-4-fluorobenzamide]"
6,148,"CC(C)(C)NS(=O)(=O)c1ccc(NC(=O)[C@H](Cc2ccccc2)NC(=O)c2cccnn2)cc1 [Compound 10j, (S)-N-(1-((4-(N-(tert-butyl)sulfamoyl)phenyl)amino)-1-oxo-3-phenylpropan-2-yl)pyridazine-3-carboxamide]"
7,> 10000,"CC(C)(C)NS(=O)(=O)c1ccc(NC(=O)[C@H](Cc2ccccc2)NC(=O)c2ccc(C(=O)O)cc2)cc1 [Compound 10f, (S)-4-((1-((4-(N-(tert-butyl)sulfamoyl)phenyl)amino)-1-oxo-3-phenylpropan-2-yl)carbamoyl)benzoic acid]"
8,123,"CC(C)(C)NS(=O)(=O)c1ccc(NC(=O)[C@H](CC2CCCCC2)NC(=O)c2ccccn2)cc1 [Compound 14j, (S)-N-(1-((4-(N-(tert-butyl)sulfamoyl)phenyl)amino)-3-cyclohexyl-1-oxopropan-2-yl)picolinamide]"
9,> 10000,"CC(C)(C)NS(=O)(=O)c1cccc2c(NC(=O)[C@H](Cc3ccccc3)NC(=O)C3CCOCC3)cccc12 [Compound 4k, (S)-N-(1-((5-(N-(tert-butyl)sulfamoyl)naphthalen-1-yl)amino)-1-oxo-3-phenylpropan-2-yl)tetrahydro-2H-pyran-4-carboxamide]"
10,666,"CC(C)(C)NS(=O)(=O)c1cccc2c(NC(=O)[C@H](CC3CCCCC3)NC(=O)c3ccccc3)cccc12 [Compound 7c, (S)-N-(1-((5-(N-(tert-butyl)sulfamoyl)naphthalen-1-yl)amino)-3-cyclohexyl-1-oxopropan-2-yl)benzamide]"
11,> 10000,"CC1CCC(C(=O)N[C@@H](Cc2ccccc2)C(=O)Nc2cccc3c(S(=O)(=O)NC(C)(C)C)cccc23)CC1 (stereo partly drawn) [Compound 4t, (S)-N-(1-((5-(N-(tert-butyl)sulfamoyl)naphthalen-1-yl)amino)-1-oxo-3-phenylpropan-2-yl)-4-methylcyclohexane-1-carboxamide]"
12,446,"CC(C)(C)NS(=O)(=O)c1cccc2c(NC(=O)[C@H](Cc3ccc(Cl)cc3)NC(=O)c3ccccc3)cccc12 [Compound 7n, (S)-N-(1-((5-(N-(tert-butyl)sulfamoyl)naphthalen-1-yl)amino)-3-(4-chlorophenyl)-1-oxopropan-2-yl)benzamide]"
13,> 10000,"C[C@@H](O)[C@H](NC(=O)C1CCCCC1)C(=O)Nc1ccc(S(=O)(=O)NC(C)(C)C)cc1 [Compound 19i, N-((2S,3R)-1-((4-(N-(tert-butyl)sulfamoyl)phenyl)amino)-3-hydroxy-1-oxobutan-2-yl)cyclohexanecarboxamide]"
14,1800,"CC(C)(C)NS(=O)(=O)c1cccc2c(NC(=O)[C@H](Cc3ccccc3)NC(=O)c3cccs3)cccc12 [Compound 4h, (S)-N-(1-((5-(N-(tert-butyl)sulfamoyl)naphthalen-1-yl)amino)-1-oxo-3-phenylpropan-2-yl)thiophene-2-carboxamide]"
15,1040,"COc1ccc(C(=O)N[C@@H](Cc2cccs2)C(=O)Nc2ccc(S(=O)(=O)NC(C)(C)C)cc2)nc1 [Compound 19t, (S)-N-(1-((4-(N-(tert-butyl)sulfamoyl)phenyl)amino)-1-oxo-3-(thiophen-2-yl)propan-2-yl)-5-methoxypicolinamide]"
16,366,"CC(C)(C)NS(=O)(=O)c1cccc2c(NC(=O)[C@H](Cc3ccccc3)NC(=O)C3CCCC3)cccc12 [Compound 4l, (S)-N-(1-((5-(N-(tert-butyl)sulfamoyl)naphthalen-1-yl)amino)-1-oxo-3-phenylpropan-2-yl)cyclopentanecarboxamide]"
17,17,CC(C)(C)NS(=O)(=O)c1ccc(NC(=O)[C@H](Cc2ccccc2)NC(=O)c2ccc(F)cc2)cc1 [Compound 10e]
18,> 10000,"Cc1ccc(C[C@H](NC(=O)c2ccccc2)C(=O)Nc2cccc3c(S(=O)(=O)NC(C)(C)C)cccc23)cc1 [Compound 7m, (S)-N-(1-((5-(N-(tert-butyl)sulfamoyl)naphthalen-1-yl)amino)-1-oxo-3-(p-tolyl)propan-2-yl)benzamide]"
19,> 10000,"CC(C)(C)NS(=O)(=O)c1cccc2c(NC(=O)[C@H](Cc3ccccc3Cl)NC(=O)c3ccccc3)cccc12 [Compound 7d, (S)-N-(1-((5-(N-(tert-butyl)sulfamoyl)naphthalen-1-yl)amino)-3-(2-chlorophenyl)-1-oxopropan-2-yl)benzamide]"
20,> 10000,"COc1ccc(C[C@H](NC(=O)c2cscn2)C(=O)Nc2ccc(S(=O)(=O)NC(C)(C)C)cc2)cc1 [Compound 19x, (S)-N-(1-((4-(N-(tert-butyl)sulfamoyl)phenyl)amino)-3-(4-methoxyphenyl)-1-oxopropan-2-yl)thiazole-4-carboxamide]"
21,> 10000,"CC(C)(C)NS(=O)(=O)c1cccc2c(NC(=O)[C@H](Cc3ccccc3)NC(=O)c3ccco3)cccc12 [Compound 4z, (S)-N-(1-((5-(N-(tert-butyl)sulfamoyl)naphthalen-1-yl)amino)-1-oxo-3-phenylpropan-2-yl)furan-2-carboxamide]"
22,83,"CC(C)(C)NS(=O)(=O)c1ccc(NC(=O)[C@H](CC2CCCCC2)NC(=O)C2CCCCC2)cc1 [Compound 14b, (S)-N-(1-((4-(N-(tert-butyl)sulfamoyl)phenyl)amino)-3-cyclohexyl-1-oxopropan-2-yl)cyclohexanecarboxamide]"
23,273,"CC(C)(C)NS(=O)(=O)c1cccc2c(NC(=O)[C@H](Cc3ccc(C#N)cc3)NC(=O)c3ccccc3)cccc12 [Compound 7j, (S)-N-(1-((5-(N-(tert-butyl)sulfamoyl)naphthalen-1-yl)amino)-3-(4-cyanophenyl)-1-oxopropan-2-yl)benzamide]"
24,71,"CC(C)(C)NS(=O)(=O)c1ccc(NC(=O)[C@H](Cc2ccccc2)NC(=O)C2CCCC2)cc1 [Compound 10c, (S)-N-(1-((4-(N-(tert-butyl)sulfamoyl)phenyl)amino)-1-oxo-3-phenylpropan-2-yl)cyclopentanecarboxamide]"
25,461,"CC(C)(C)NS(=O)(=O)c1ccc(NC(=O)[C@H](CC2CCCCC2)NC(=O)c2ccccc2F)cc1 [Compound 14f, (S)-N-(1-((4-(N-(tert-butyl)sulfamoyl)phenyl)amino)-3-cyclohexyl-1-oxopropan-2-yl)-2-fluorobenzamide]"
26,59,"CC(C)(C)NS(=O)(=O)c1ccc(NC(=O)[C@H](Cc2ccccc2)NC(=O)C2CCCCC2)cc1 [Compound 10b, (S)—N-(1-((4-(N-(tert-butyl)sulfamoyl)phenyl)amino)-1-oxo-3-phenylpropan-2-yl)cyclohexanecarboxamide]"
27,248,"CC(C)(C)NS(=O)(=O)c1cccc2c(NC(=O)[C@@H](Cc3ccccc3)NC(=O)c3ccccc3)cccc12 [Compound 4a, (R)-N-(1-((5-(N-(tert-butyl)sulfamoyl)naphthalen-1-yl)amino)-1-oxo-3-phenylpropan-2-yl)benzamide]"
28,133,"CC(C)(C)NS(=O)(=O)c1ccc(NC(=O)[C@H](Cc2ccc(F)cc2)NC(=O)c2ccccc2)cc1 [Compound 19b, (S)-N-(1-((4-(N-(tert-butyl)sulfamoyl)phenyl)amino)-3-(4-fluorophenyl)-1-oxopropan-2-yl)benzamide]"
29,269,"CC(C)(C)NS(=O)(=O)c1cccc2c(NC(=O)[C@H](Cc3ccccc3)NC(=O)c3ccc(C#N)cc3)cccc12 [Compound 4r, (S)-N-(1-((5-(N-(tert-butyl)sulfamoyl)naphthalen-1-yl)amino)-1-oxo-3-phenylpropan-2-yl)-4-cyanobenzamide]"
30,179,"CC(C)NS(=O)(=O)c1ccc(NC(=O)[C@H](Cc2ccccc2)NC(=O)C2CCCCC2)cc1 [Compound 19h, (S)-N-(1-((4-(N-isopropylsulfamoyl)phenyl)amino)-1-oxo-3-phenylpropan-2-yl)cyclohexanecarboxamide]"
